# Results published in patent US20110118277A1, “METHOD OF TREATING LIVER DISEASE” (priority 2003, published 2011).
# Columns and labels:
# VEGF = assay: Ribonuclease protection assay of whole liver RNA: VEGF; type: in vivo, mouse; conditions: RPA, normalized to GAPDH, mean±SEM of 4 mice, HMCDE diet
# Experimental: (§1) Total […] was isolated from frozen liver samples according to the method of Chomczynski and Sacchi as described in Gastroenterology 2002; 123: 1304-1310. KNA concentration was determined by optical density and quality was assessed by agarose gel electrophoresis and ethidium bromide staining. Commercial ribonuclease protection assay (RPA) kits with probes for murine cytokines (PharMingen, San Diego, Calif.) were used to evaluate factors that might be involved in the recruitment and expansion of HPC after liver injury. The factors studied were Stem Cell Factor (SCF), Hepatocyte Growth Factor (HGF), Interleukin-7 (IL-7), IL-11, Leukaemia Inhibitory Factor (LEF), Granulocyte-Macrophage Colony Stimulating Factor (GM-CSF), Granulocyte Colony, Stimulating Factor (G-CSF), Vascular Endothelial Growth Factor (VEGF), and its receptors, VEGFR1 and VEGFR3. Details of the RPA are described in J Pathol 2003; 199:191-200.
# (§2) Total RNA was isolated from frozen liver samples as described in Mech Dev 120: 117-130, 2003. RNA concentration was determined by optical density and quality assessed by agarose gel electrophoresis and ethidium bromide staining. […]
# (§3) In Table 1, Total liver RNA was obtained from 4 mice per treatment group and analyzed by RPA 20 μg RNA sample from each mouse was evaluated. Results are normalized to concurrently assessed expression of GAPDH in the same RNA samples. […]
# LIN^−ve/Thy-1^+ve cells = assay: Flow cytometry of putative bone marrow-derived hepatic progenitors in liver of HMCDE-fed mice; type: in vivo, mouse; conditions: FIG. 4C, P<0.03 (PRZ), <0.05 (6-OHDA)
# Text: The hepatic non-parenchymal cell fraction, which contains the oval cell population and the NK-T cell populations, were isolated as described in Hepatology 1998; 27:433-455 and Gastroenterology 2002; 123:[…]. Briefly, livers were carefully removed and homogenized in Stomacher80 (Seawood, England). The homogenate was then passed through a 100-μm wire mesh and liver cells were collected by centrifugation at 450 g. Mononuclear cells were purified from this fraction by centrifugation at 900 g over 35% Percoll gradients (Amersham Pharmacia Biotech) and incubated with normal mouse serum (Sigma, St Louis, Mo.) and Fc-receptor block (anti-CD16/CD32) to prevent nonspecific binding, plus APC-conjugated anti-mouse Thy-1.2 (the C57BL-6 form of the Thy-1 antibody) and antibodies directed against hematopoietic lineage markers (LIN, a mix of anti-mouse CD4, CD8, CD3, CD45, CD19, Mac-1, Gr-1, Ter119). For NK-T cell labelling, the mononuclear cells were incubated with […] anti-mouse NK-1.1 and PE-conjugated anti-mouse CD3. […] After incubation, pellets were washed to remove unbound antibodies, fixed with 2% formaldehyde and evaluated by FACS (Becton Dickenson). […] Data was analyzed by Cell Quest software (Becton Dickenson) to determine changes in these cell populations in different treatment groups.
# norepinephrine = conditions: 6-OHDA 100 mg/kg i.p. regimen, previously shown; cited from earlier work
# oval cells = assay: Immunohistochemical count of hepatic oval cells (HPC) in HMCDE-fed mice; type: in vivo, mouse; conditions: FIGS. 4A-4C, immunohistochemistry (and flow cytometry), P<0.001
# Experimental: Immunohistochemical analysis of HPC was performed with a mouse monoclonal OV6-type antibody (from Dr Stuart Sell, Albany Medical College, Albany, N.Y.) reacting with cytokeratins 14 and 19; a rabbit polyclonal antibody against 56 and 64 kD human callus cytokeratins (Dako, Denmark) and a rat monoclonal antibody to cytokeratin 19 as described Am J Pathol 2002; 161:521-530.
# Details of the staining procedures are as described Am J Pathol 2002; 161:521-530. Briefly, 4 um thick paraffin sections were deparaffinized and rehydrated, followed by heating in a microwave oven for 10 minutes at 750 Watt in citrate buffer, pH 6.0. Incubation with the primary antibodies was performed at room temperature for 30 minutes. Mouse monoclonal OV6 antibody and rat anti-cytokeratin 19 were detected using the DAKO Animal Research Kit, peroxidase (Dako, Denmark). The rabbit polyclonal antibody against 56 and 64 kD human callus cytokeratins was detected by anti-rabbit Envision (Dako, Denmark) as described in J Pathol 2003; 199:191-200. […]
# To evaluate the effect of treatments on the HPC compartment, coded samples were examined by an experienced liver pathologist blinded to treatment groups. For each liver section, the number of HPC in 5, randomly selected, non-overlapping, high power (×40 objective) fields was counted. […] Interlobular bile ducts were not considered progenitor cells and, thus, were not counted as such.
# HGF = assay: Ribonuclease protection assay of whole liver RNA: HGF; type: in vivo, mouse; conditions: for effect on HMCDE-induced increase of hepatic HGF expression: versus HMCDE alone; for Gene Expression HGF: whole liver RNA, RPA, normalized to GAPDH, mean±SEM of 4 mice, HMCDE diet
# Experimental: as §1
# Total RNA was isolated from frozen liver samples as described in Mech Dev 120: 117-130, 2003. RNA concentration was determined by optical density and quality assessed by agarose gel electrophoresis and ethidium bromide staining. Ribonuclease protection assay (RPA) kits with probes for murine cytokines (PharMingen, San Diego, Calif.) were used to evaluate factors that might be involved in the recruitment and expansion of HPC after liver injury. The factors studied were Stem Cell Factor (SCF), Hepatocyte Growth Factor ([…]), Interleukin-6 (IL-6), IL7, IL-11, Leukaemia Inhibitory Factor (LIF), Granulocyte-Macrophage Colony Stimulating Factor (GM-CSF), Macrophage Colony Stimulating Factor (M-CSF), Granulocyte Colony Stimulating Factor (G-CSF), Vascular Endothelial Growth Factor (VEGF), and its receptors, VEGFR1 and YEGFR3.
# In Table 1, Total liver RNA was obtained from 4 mice per treatment group and analyzed by RPA 20 μg RNA sample from each mouse was evaluated. Results are normalized to concurrently assessed expression of GAPDH in the same RNA samples. Data shown are the mean±SEM results of 4 mice per treatment group. Similar results were obtained in a second experiment.
# G-CSF = assay: Ribonuclease protection assay of whole liver RNA: G-CSF; type: in vivo, mouse; conditions: RPA, normalized to GAPDH, mean±SEM of 4 mice, HMCDE diet
# Experimental: as §1, §2, §3
# [1] = test system: bone marrow-derived hematopoietic progenitors; conditions: treatment of mice, shown hitherto; cited from earlier work
# VEGFR3 = assay: Ribonuclease protection assay of whole liver RNA: VEGFR3; type: in vivo, mouse; conditions: RPA, normalized to GAPDH, mean±SEM of 4 mice, HMCDE diet
# Experimental: as §1, §2, §3
# VEGFR1 = assay: Ribonuclease protection assay of whole liver RNA: VEGFR1; type: in vivo, mouse; conditions: RPA, normalized to GAPDH, mean±SEM of 4 mice, HMCDE diet
# Experimental: as §1, §2, §3
# [2] = test system: carbon tetrachloride-treated rats; conditions: earlier study; cited from earlier work
# hepatocyte DNA synthesis = conditions: rats pre-treated immediately before PH; cited from earlier work
SMILES,Gene Expression VEGF (VEGF),LIN^−ve/Thy-1^+ve cells in liver versus HMCDE diet alone (LIN^−ve/Thy-1^+ve cells),norepinephrine in rodent tissues (norepinephrine),oval cell / HPC number versus HMCDE diet alone (oval cells),effect on HMCDE-induced increase of hepatic HGF expression (HGF),Gene Expression HGF (HGF),Gene Expression G-CSF (G-CSF),mobilization of hematopoietic progenitors [1],Gene Expression VEGFR3 (VEGFR3),Gene Expression VEGFR1 (VEGFR1),development of cirrhosis [2],compensatory induction of hepatocyte DNA synthesis after partial hepatectomy (hepatocyte DNA synthesis)
"NCCc1cc(O)c(O)cc1O [6-OHDA, 6-hydroxydopamine]",2.3 ± 0.5,more LIN^−ve/Thy-1^+ve cells,virtually deplete norepinephrine in rodent tissues,significantly augments diet-induced HPC expansion,did not augment this response,2.4 ± 0.75,1.4 ± 0.3,mobilize bone marrow-derived hematopoietic progenitors into the circulation,2.1 ± 1.0,0.4 ± 0.1,,
"COc1cc2nc(N3CCN(C(=O)c4ccco4)CC3)nc(N)c2cc1OC [PRZ, prazosin]",1.4 ± 0.4,more LIN^−ve/Thy-1^+ve cells,,significantly augments diet-induced HPC expansion,did not augment this response,2.1 ± 0.30,1.0 ± 0.3,mobilize bone marrow-derived hematopoietic progenitors into the circulation,1.7 ± 0.4,0.2 ± 0.2,prevents the development of cirrhosis,inhibited
